# US20250381179A1, “CHROMAN-BASED COMPOUNDS FOR TREATING CANCER” (priority 2024, published 2025)
# Columns and labels:
# [1] = tested on: tamoxifen-resistant MCF7 xenograft; assay: Tamoxifen-resistant MCF7 xenograft model; assay type: in vivo, mice; conditions: in combination with the CDK4/6 inhibitor palbociclib
# [2] = Exposure after repeat oral administration in GLP toxicology study, rats; assay type: in vivo
# Text: There were no marked sex-based differences in exposure, but in the 28-day toxicity study of compound (1-g) in rats, exposures were 1.4 to 1.9-fold higher in female rats compared to males.
# [3] = molecular target: T1, human cytochrome P450 CYP2C8 (Homo sapiens, UniProt P10632); assay: In vitro metabolism by CYP2C8; assay type: in vitro ADME
# T1 sequence (P10632 1-490): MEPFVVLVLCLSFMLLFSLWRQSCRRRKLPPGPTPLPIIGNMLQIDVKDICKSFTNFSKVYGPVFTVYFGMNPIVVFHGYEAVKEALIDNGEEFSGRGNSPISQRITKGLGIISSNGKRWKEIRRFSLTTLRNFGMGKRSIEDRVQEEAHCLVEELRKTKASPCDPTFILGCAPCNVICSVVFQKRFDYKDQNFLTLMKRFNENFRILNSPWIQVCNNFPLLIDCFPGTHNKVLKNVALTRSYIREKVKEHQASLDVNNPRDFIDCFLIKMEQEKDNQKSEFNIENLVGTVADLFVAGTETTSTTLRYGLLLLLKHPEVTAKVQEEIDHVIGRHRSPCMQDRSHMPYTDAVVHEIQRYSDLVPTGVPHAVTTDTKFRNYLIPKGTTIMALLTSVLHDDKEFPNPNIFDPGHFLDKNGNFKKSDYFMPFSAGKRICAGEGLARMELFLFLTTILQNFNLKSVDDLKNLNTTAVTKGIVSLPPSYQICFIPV
compound,measurement,setting,value
"O=C1CC[C@H](N2Cc3cc(N4CCN(CC5CCN(c6ccc([C@@H]7c8ccc(O)cc8OC[C@@H]7c7ccccc7)cc6F)CC5)CC4)ccc3C2=O)C(=O)N1 [compound (1-g), (S)-3-(5-(4-((1-(2-fluoro-4-((3S,4R)-7-hydroxy-3-phenylchroman-4-yl)phenyl)piperidin-4-yl)methyl)piperazin-1-yl)-1-oxoisoindolin-2-yl)piperidine-2,6-dione]",anti-tumor activity in combination,[1],enhanced anti-tumor activity was observed
same,accumulation with repeated dosing,[2],No significant accumulation
same,exposure (AUC0-24h) versus dose,[2]; repeat oral administration,increased in an approximately dose-dependent manner
same,metabolism by CYP2C8,[3],weakly metabolized
